Results published in ChEMBL document CHEMBL1142650, “Novel transient receptor potential vanilloid 1 receptor antagonists for the treatment of pain: structure-activity relationships for ureas with quinoline, isoquinoline, quinazoline, phthalazine, quinoxaline, and cinnoline moieties” (J Med Chem, 2005).
Blank lines part the entries; values can stand above or below the compound they belong to.

Key:
[1] = biological target: Transient receptor potential cation channel subfamily V member 1 (Homo sapiens, UniProt Q8NER1); assay: Inhibition of binding to human vanilloid receptor subtype VR1
[2] = Volume of distribution in rat; type: ADME, organism-based; details: in vivo, read-out: Vbeta
[3] = Maximum concentration in rat; type: ADME, organism-based; details: in vivo
[4] = Plasma protein binding in rat; type: ADME, cell-free; details: read-out: Plasma protein binding (converted)
[5] = Half life in rat; type: ADME; details: in vivo
[6] = biological target: Transient receptor potential cation channel subfamily V member 1 (Rattus norvegicus, UniProt O35433); assay: Inhibition of binding to rat transient receptor potential vanilloid 1 receptor
[7] = Plasma protein binding in human; type: ADME, cell-free; details: read-out: Plasma protein binding (converted)
Rattus norvegicus = species on record: Rattus norvegicus; assay: Concentration required to reduce thermal hyperalgesia in the complete Freund's adjuvant (CFA) model of chronic inflammatory pain; type: functional

Transient receptor potential cation channel subfamily V member 1 (Homo sapiens, UniProt Q8NER1), sequence (Q8NER1 whole entry): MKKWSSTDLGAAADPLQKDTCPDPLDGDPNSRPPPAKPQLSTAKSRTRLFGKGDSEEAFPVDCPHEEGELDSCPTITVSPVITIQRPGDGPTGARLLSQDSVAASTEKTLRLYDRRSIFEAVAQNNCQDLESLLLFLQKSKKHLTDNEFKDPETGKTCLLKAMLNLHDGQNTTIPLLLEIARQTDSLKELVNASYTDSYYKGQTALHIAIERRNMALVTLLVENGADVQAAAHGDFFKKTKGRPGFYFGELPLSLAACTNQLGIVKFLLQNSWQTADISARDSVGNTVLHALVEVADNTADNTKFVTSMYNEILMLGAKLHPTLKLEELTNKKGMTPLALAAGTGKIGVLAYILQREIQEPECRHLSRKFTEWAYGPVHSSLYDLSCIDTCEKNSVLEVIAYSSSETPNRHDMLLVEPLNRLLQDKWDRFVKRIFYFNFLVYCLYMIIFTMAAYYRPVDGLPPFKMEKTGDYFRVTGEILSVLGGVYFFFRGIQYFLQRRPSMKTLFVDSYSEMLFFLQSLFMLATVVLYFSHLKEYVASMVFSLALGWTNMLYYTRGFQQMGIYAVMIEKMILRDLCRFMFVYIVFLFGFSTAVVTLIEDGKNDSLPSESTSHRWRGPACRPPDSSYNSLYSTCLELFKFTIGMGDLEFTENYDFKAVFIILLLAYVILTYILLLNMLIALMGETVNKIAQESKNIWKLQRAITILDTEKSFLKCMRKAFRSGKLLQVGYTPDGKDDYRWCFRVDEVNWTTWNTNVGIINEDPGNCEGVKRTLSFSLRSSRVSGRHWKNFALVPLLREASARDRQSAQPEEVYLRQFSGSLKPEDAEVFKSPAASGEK
Transient receptor potential cation channel subfamily V member 1 (Rattus norvegicus, UniProt O35433), sequence (O35433 whole entry): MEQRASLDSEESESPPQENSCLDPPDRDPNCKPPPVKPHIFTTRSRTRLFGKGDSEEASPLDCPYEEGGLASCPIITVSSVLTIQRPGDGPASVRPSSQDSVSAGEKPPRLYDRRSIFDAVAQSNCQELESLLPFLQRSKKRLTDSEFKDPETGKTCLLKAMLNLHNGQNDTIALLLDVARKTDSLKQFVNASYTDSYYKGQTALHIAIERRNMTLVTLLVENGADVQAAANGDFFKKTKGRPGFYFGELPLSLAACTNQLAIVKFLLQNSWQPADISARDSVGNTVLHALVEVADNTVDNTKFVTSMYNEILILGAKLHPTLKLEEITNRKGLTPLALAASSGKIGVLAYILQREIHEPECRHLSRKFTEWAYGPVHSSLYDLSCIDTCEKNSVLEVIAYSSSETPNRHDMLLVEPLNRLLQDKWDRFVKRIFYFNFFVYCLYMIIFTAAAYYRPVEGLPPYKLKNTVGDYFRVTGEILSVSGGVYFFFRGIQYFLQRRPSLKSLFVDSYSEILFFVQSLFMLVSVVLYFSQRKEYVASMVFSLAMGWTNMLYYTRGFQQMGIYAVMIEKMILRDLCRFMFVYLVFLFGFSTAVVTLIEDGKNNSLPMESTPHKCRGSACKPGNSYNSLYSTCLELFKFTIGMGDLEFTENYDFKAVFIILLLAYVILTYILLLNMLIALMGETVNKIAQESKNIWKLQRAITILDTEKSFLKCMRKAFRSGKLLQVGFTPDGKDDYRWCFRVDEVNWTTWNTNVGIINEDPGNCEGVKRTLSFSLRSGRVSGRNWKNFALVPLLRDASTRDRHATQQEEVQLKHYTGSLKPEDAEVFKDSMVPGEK

IC50 [1]: 4 nM
Vd [2]: 0.6 L/kg
Cmax [3]: 3000 ng/mL
fraction unbound [4]: 0.029
half-life [5]: 36 min
IC50 [6]: 24 nM
fraction unbound [7]: 0.02
SMILES: O=C(NCc1ccc(C(F)(F)F)cc1)Nc1cccc2cnccc12
ED50 (Rattus norvegicus): 30 µmol/kg

IC50 [1]: 22 nM
SMILES: CSc1cccc(NC(=O)Nc2cccc3ccc(O)cc23)c1

IC50 [1]: 20 nM
SMILES: O=C(NCCc1cccc(C(F)(F)F)c1)Nc1cccc2cnccc12

IC50 [1]: 51 nM
SMILES: O=C(NCc1cccc(C(F)(F)F)c1)Nc1cccc2cnccc12
